In patent publication US5792457A, “Antibody recognizing endothelial cell ligand for leukocyte CR3” (priority 1995, dated 1998):

Columns and labels:
[1] = test system: recognition of C3bi by antibody 12.1F9; experiment: Inhibition of binding of 12.1F9 to E^C3bi by peptides; set-up: species or system human; conditions: peptides 50 μg/ml; for Adherence index: normalized to control value of 100, 6 experiments
Description: Values are normalized to a control value of 100; data are expressed as the mean±SD of 6 experiments with duplicate wells.

[2] = test system: Factor Xa procoagulant activity on THP-1 cells; experiment: Generation of Factor Xa by monocytes (THP-1), clotting assay; assay type: cell-based; conditions: for Factor Xa / Clotting time: peptides 0.5 mM; for reduction of Factor Xa production: 0.5 mM, vs scrambled FHA II, 20 min; for Clotting time: mean ± SD of at least 3 experiments
Procedure: Factor Xa generation was determined by a modification of the method of Miletich et al. (1978), J. Biol. Chem. 253: 6908-6916. THP-1 cells (ATCC; […]) resuspended in RPMI 1640 (Bio Whittaker, Walkersville,Md.) were incubated with 100 μM ADP (Sigma), 2.5 mM CaC2, 1 or 5 μg/ml Factor X (Hematologic Technologies Inc.) and 0.5 mM peptides at room temperature. After 20 minutes, 100 μl of the reaction mixture was transferred to 37° C. and supplemented with 100 μl of bovine factor VII- and Factor X-deficient plasma (Sigma). Coagulation was initiated by adding 100 μl of 25 mM CaC2 and the clotting time was determined. Factor Xa procoagulant activity (ng/ml) was calculated by means of a standard curve constructed by serial concentrations of Factor Xa (Hematologic Technologies Inc.) from 50 to 250 ng/ml.

[3] = test system: transendothelial migration of human neutrophils through HUVEC monolayers; experiment: Transendothelial migration (TEM) of neutrophils; assay type: cell-based; conditions: peptides 0.01 mM, native FHA 1 μM; at least 3 experiments with 6 wells/peptide
Description: FIG. 26 is a graphical representation of the inhibition of transendothelial migration of neutrophils by FHA peptide Ca, native FHA and mAb IB4 in a concentration dependent fashion. FHA peptide Ca (.largecircle.); intact FHA (.quadrature.); and mAb IB4 (.tangle-solidup.). Values represent mean±standard deviation of at least 3 experiments with 6 wells/peptide.
Transendothelial migration of neutrophils was studied based on a method described by Muller et al. (1992), J. Exp. Med. 176: 819-828. Briefly, human neutrophils suspended in ice-cold Hanks balanced salt solution (HBSS) containing Ca^++ and Mg^++ (Sigma) were fluoresceinated by adding 3.3 μl/ml 5-(and 6-)carboxyfluorescein diacetate, succinimidyl ester (CFSE, Molecular Probes Inc., Oreg.). After incubation for 30 mins. on ice, neutrophils were washed twice in cold HBSS with Ca^++ and Mg^++ and resuspended in cold Medium 199 (M199, Sigma) to a final concentration of 10^6 /ml. Human umbilical vein endothelial cells were subcultured at confluence into 96-well tissue culture plates (Becton Dickinson Labware, Lincoln Park, N.J.) that were coated with hydrated collagen gel (Vitrogen; Collagen Corporation, Palo Alto, Calif.) and fibronectin. Endothelial cells were stimulated with 10 ng/ml TNF-alpha for 4 hours and washed three times with warm M199. Neutrophils (10^6 /ml) were preincubated with 0.01 mM of peptides or with 1 μM of native FHA in M199 for 5 mins. on ice before they were added in 100 μl aliquots to the endothelial cells. For positive control, neutrophils were pre-incubated with 25 μg/ml anti-CD18 mAb IB4. For negative control, neutrophils were treated with 25 μg/ml mAb W6/32 against HLA class I antigen (Dako, Carpinteria, Calif.). The cells were incubated for 1 hour at 37° C., 5% CO2. To terminate transmigration, the supernatant fluid was aspirated and the wells were filled with warm 1 mM EGTA (Sigma) in HBSS without Ca and Mg. The plates were covered with plate sealers (Dynatech, Alexandria, Va.) and centrifuged in an inverted position at 250 g for 3 mins. at room temperature. To remove residual non-transmigrated neutrophils from the endothelial cells, monolayers were washed twice with 200 μl of warm Hanks solution without Ca and Mg. Fluorescence was quantitated using a fluorescence counter (Millipore Cytofluorm™ 2300). The percentage of transmigrated neutrophils was determined by comparing the amount of fluorescence of test wells with that measured in collagen- and fibronectin-coated wells without endothelial cells. […] Percent inhibition of transendothelial migration of neutrophils was calculated by comparing the number of transmigrated cells in wells containing neutrophils treated with peptide to neutrophils treated with M199 alone and arbitrarily set at 100% transendothelial migration (TEM).
(§1) The procedures for determining the neutrophil adherence to cultured endothelial cells and the transendothelial migration of neutrophils were identical with those of Example 9. Control values were the same as those shown in Example 9.

Factor X binding to CR3 = conditions: cited from earlier work
CSF leukocytosis = experiment: Rat meningitis model (LOS): CSF leukocytosis; assay type: in vivo, female Wistar rats; conditions: 4 hours after LOS
Procedure: The experiments were performed according to established protocols (Wispelway et al., 1988, J. Clin. Invest., 82: 1339-1346). Purified Haemophilus influenzae type b strain DL42 lipooligosaccharide (LOS) was prepared for inoculation by sonication for 30 minutes, dilution to the desired concentration (20 ng/50 μl) in normal saline or PBS, and sonication for an additional 15 to 30 minutes just prior to use.
(§2) Briefly, anesthetized female Wistar rats were placed under a micromanipulator and inoculated intracisternally with a 25 gauge needle. After removal of 50 μl of CSF (without visible blood contamination), rats were inoculated intracisternally with 50 μl (20 ng) of LOS using a 1 ml syringe with a 25 gauge needle. Ten to fifteen minutes after inoculation with LOS, the rats were treated by intravenous administration of the test substance: a solution of an FHA peptide in PBS, a solution of a control peptide in PBS, or an equal volume of PBS alone.
(§3) Three hours after LOS inoculation, 5 μCi of ^125 I-radiolabelled albumin in 50 μl normal saline was administered intravenously. One hour later, CSF was collected via intracisternal puncture and blood samples were collected via intracardiac puncture. CSF leukocytosis was determined by manually counting white blood cells using a hemacytometer, and blood-brain barrier permeability was determined as the percent of radioactivity in whole blood that was present in the CSF. Blood samples were obtained immediately prior to inoculation, immediately prior to treatment, and at 4 hours post-inoculation for determination of peripheral white blood cell concentrations.

B. pertussis = conditions: in vivo; cited from earlier work
[4] = test system: blood-brain barrier permeability; experiment: Rat meningitis model (LOS): blood-brain barrier permeability (125I-albumin); assay type: in vivo, female Wistar rats; conditions: 100 nmol; percent of radioactivity in whole blood present in CSF
Procedure: as §2, §3

[5] = test system: neutrophil adherence to human umbilical vein endothelial cells (HUVEC); experiment: Adherence of neutrophils to cultured (TNF alpha stimulated) endothelial cells; assay type: cell-based
Procedure: FIG. 17 is a bar graph representation of the inhibition of neutrophil adherence to activated endothelial cells by FHA, Factor X- and FHA- derived peptides. The concentration of inhibiting substances was: peptides 0.5 mM, native FHA 0.3 μM. Values represent the mean±standard deviation of 4 experiments with 5 wells/peptide.
FIG. 18 is a graphical representation of the FHA, FHA- or Factor X-peptide concentration effects on the inhibition of neutrophil adherence to activated endothelial cells. FHA peptide II monomer (Square) and trimer (Diamond), Factor X peptide II (Circle) at 10^-9 μM to 0.5 mM; native FHA at 10^-6 to 3×10^2 μM (triangle). Values represent the mean of 3 experiments with 5 wells/peptide (standard deviations <15%).
FIG. 25 is a graphical representation of the inhibition of neutrophil adherence to activated endothelial cells by FHA and FHA peptides. FIG. 25A: Peptide concentrations were 0.5 mM (FHA 0.2 μM). Values represent mean±standard deviation of four experiments with 5 wells/peptide; FIG. 25B represents the mean±standard deviation of triplicate experiments with 5 wells/peptide. Native FHA (.quadrature.); FHA peptide Ca (.largecircle.).
Human umbilical vein endothelial cells (HUVEC, first passage, Clonetics, San Diego, Calif.) were subcultured at confluence into Terasaki tissue culture wells. After 24 hours, confluent monolayers were used for adherence assays. Monolayers were stimulated with 10 ng/ml TNF alpha (Boehringer Mannheim, Indianapolis, Ind.) at 37° C. for four hours. 30 μl of human neutrophils (10^6 /ml) were labeled with fluorescein by the method of Lo et al. (1991), J. ExP. Med. 173 1493-1500, and preincubated for 15 minutes at 37° C. with 20 μl of peptides (0.5 mM in HAP) or HAP (phosphate buffered saline containing 0.5 mg/ml human serum albumin, 3 mM glucose, and 0.3 U/ml aprotinin) as a control buffer. For some experiments, endothelial cells were pretreated from 10 minutes with Factor X or antibodies against Factor X receptor (EPR-1; Altieri et al. (1990), J. Immunol. 145, 246-253) 12H1 and 9D4 (obtained from Dr. D. Altieri, Scripps Research Institute, LaJolla, Calif.) and then washed. Neutrophils were allowed to adhere to the monolayer for 15 mins. at 37° C. and unbound cells were removed by submersion of the plate in PBS buffer. The number of adherent neutrophils was counted in a 40× microscope field and expressed as a percentage of adherence in control wells with neutrophils treated with HAP buffer alone. The mAb IB4 against CD18 (50 μg/ml; Merck Inc., Rahway, N.J.) served as a positive control.
The ability of FHA peptides and anti-CD18 or anti-Factor X receptor antibodies to interact cooperatively to inhibit neutrophil adherence to endothelial cells was assessed by measuring neutrophil adherence to endothelial cells in the presence of antibody as well as antibody plus peptide. […] Anti-Factor X receptor mAb 12H1 (10 μl of ascites) or 9D4 (10 μg/ml) were added to the endothelial cell monolayers 10 min before the assay. The peptides were added at 5 μg/ml. The results are shown in Table 8 where the numerical values are in % of control binding.
as §1

| Compound | Adherence index [1] | Factor Xa [2] | % Inhibition of TEM [3] | Clotting time [2] | further results |
| --- | --- | --- | --- | --- | --- |
| YTVAIAGYALA [C3-pep 1187-1197] | 30 ± 16 | – | – | – | block of binding of 12.1F9 to E^C3bi [1]: up to 60% |
| CC(=O)N[C@@H](CC(C)C)C(=O)N[C@@H](CC(C)C)C(=O)N[C@H](C=O)CCCNC(=N)N [Leupeptin, reference compound] | – | < 10.0 ng/mL | – | – | – |
| GLIQGRSVKVD [FHA Ib] | – | 31.3 ng/mL | 7 ± 10% | 38.0 ± 7.6 s | reduction of Factor Xa production [2]: 81% |
| TRYRGDQDATMS [C3/12, reference compound] | 127 ± 27 | – | – | – | – |
| GLYQAKRFKVG [Factor X I] | – | 37.8 ng/mL | 10 ± 6% | 37.0 ± 4.0 s | effect on Factor Xa generation (in words) [2]: substantial reduction that did not reach statistical significance; inhibition of binding of CR3 bearing cells to Factor X (in words) (Factor X binding to CR3): competitively inhibit the binding of CR3 bearing tissue culture cells to purified Factor X |
| IDRSMKTRG [Factor X III] | – | 107.5 ng/mL | 5 ± 7% | 26.5 ± 2.4 s | effect on Factor Xa generation (in words) [2]: substantial reduction that did not reach statistical significance; inhibition of binding of CR3 bearing cells to Factor X (in words) (Factor X binding to CR3): competitively inhibit the binding of CR3 bearing tissue culture cells to purified Factor X |
| Ac-VEEDTKG-NH2 [scrambled ac/am FHA II, VEEDTKG] | – | – | – | – | Leukocytosis (CSF) (CSF leukocytosis; 600 nmol i.v.): 14,287 ± 10,199 cells/ml; Leukocytosis (CSF) (CSF leukocytosis; 600 nmol i.v., listed as control peptide (scrambled ac/am FHA II)): approximately 14,000 cells/ml |
| VTVGRGDPAQG [FHA RGD] | 85 ± 9 | – | – | – | – |
| OC[C@H]1O[C@@H](O[C@H]2[C@H](O)[C@@H](O)C(O)O[C@@H]2CO)[C@H](O)[C@@H](O)[C@H]1O (stereo partly drawn) [Lactose] | – | – | – | – | colonization of rabbit lung (in words) (B. pertussis): decrease colonization of rabbit lung |
| IDVPQHGGAMRDLGIAQGKD [scrambled FHA Ca] | – | – | – | – | Leukocytosis (CSF) (CSF leukocytosis; 100 nmol i.v.): 20,700 ± 7,400 cells/ml; Leukocytosis (CSF) (CSF leukocytosis; 100 nmol i.v., listed as control peptide (scrambled FHA Ca)): approximately 20,000 cells/ml; BBB permeability [4]: 6.74 ± 3.48% |
| YTVSADAIALA [FHA 1408-1418] | 21 ± 11 | – | – | – | block of binding of 12.1F9 to E^C3bi [1]: up to 60% |
| FHA peptide A: synthetic peptide, residues 1055-1099, SEQ ID NO: 20 (IGALKAGAVEAASPRRARRALRQDFFTPGSVVVRAQGNVTVGRGD; UniProt P12255 1055-1099, looked up, fragment) | – | – | – | – | inhibition of neutrophil adherence ([5]; 45/50-mer peptides, FHA peptide C 1 mg/ml, 0.2 mM): < 15% |
| GRTRG (UniProt P12255 32-36, looked up, fragment) [FHA III] | – | 43.4 ng/mL | 5 ± 6% | 36.2 ± 2.7 s | inhibition of neutrophil adherence (in words) ([5]; peptides 0.5 mM (Example 9)): less effective than the corresponding Factor X derived peptide; reduction of Factor Xa production [2]: 74% |
